From publication PMC12123601, “Light-Induced, Lysine-Targeting Irreversible Covalent Inhibition of the Human Oxygen Sensing Hydroxylase Factor Inhibiting HIF (FIH)” (Journal of the American Chemical Society, 2025)

Molecular target: T1, PHD2 (Homo sapiens, UniProt Q9GZT9)
T1 construct: endogenous in cells; host or cells: Hep3B (SCSP-5045)
Assay: CETSA in Hep3B cells detecting PHD2 engagement
Format: cell-based
Conditions: 50 μM, 12-48 h after 30 min light activation
Procedure: To investigate potential cellular target engagement of NBA-ZG-2291 with FIH, we performed a time-dependent cellular thermal shift assay (CETSA) using Hep3B cells. The results imply that, after 30 min of light activation (365 nm, 16 W), NBA-ZG-2291 effectively stabilizes FIH with a ΔT m of about 9 °C after incubation for 12–48 h (Figure A), indicating sustained engagement with FIH. […] We also performed Western blotting to examine the protein levels of both HIF-1α and HIF-2α in control and NBA-ZG-2291-treated Hep3B cells.
Figure S11. The CETSA assay detecting PHD2 engagement was carried out with Hep3B cells grown in the presence of NBA-ZG-2291 (50 µM) for 12-48 h after 30 minutes of light activation (365 nm, 16W). The intensity of the bands for grayscale analysis was referenced to the starting temperature (37 °C). α-Actinin was the sample loading control. n = 2; mean ± SD. The uncropped blot is […]
(1 picture or pasted object on this page, not shown here)
3.4 Intact protein mass spectrometry […]
The process of customizing non-standard residues (NBA-ZG-2291 modified Lys106) in the amber14sb force field involved the following steps: First, the molecular structure of NBA-ZG-2291 was obtained and its topology was generated. […] The molecular charges were then calculated using the RESP method, and the topology file was updated with these charge values. […]

T1 sequence (Q9GZT9 whole entry): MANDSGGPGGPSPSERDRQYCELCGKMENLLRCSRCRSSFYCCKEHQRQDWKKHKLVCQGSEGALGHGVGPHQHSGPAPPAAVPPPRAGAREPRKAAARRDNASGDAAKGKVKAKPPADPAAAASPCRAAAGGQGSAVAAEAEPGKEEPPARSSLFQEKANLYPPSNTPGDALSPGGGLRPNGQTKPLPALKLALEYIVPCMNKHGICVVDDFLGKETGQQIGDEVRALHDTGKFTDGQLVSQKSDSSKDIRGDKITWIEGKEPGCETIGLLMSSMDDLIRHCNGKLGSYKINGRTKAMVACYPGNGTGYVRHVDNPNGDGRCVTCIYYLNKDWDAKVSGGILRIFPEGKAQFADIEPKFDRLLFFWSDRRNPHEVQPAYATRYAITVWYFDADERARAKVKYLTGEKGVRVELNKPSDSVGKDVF

## O=C(O)CNC(=O)c1ncc(-c2cc(-c3ccc(CO)c([N+](=O)[O-])c3)no2)cc1O [NBA-ZG-2291]
  Effect on stability of PHD2 in cells (CETSA): not observed to affect the stability of PHD2
